Test results reported in patent publication US20070265212A1, “Drug Transport and Delivery System” (LUZERN ACQUISITION CORP., C/O STRELA DEVELOPMENT, priority 2002, published 2007).

Experiments:
[1] = test system: human melanoma cells; test: Metabolite formation in the presence of human melanoma cells (HPLC, mass spectrometry); assay type: in vitro ADME; conditions: identified by HPLC and mass spectrometry
Protocol: (§1) These metabolites were identified by HPLC and mass spectrometry to be m-L-Sarcolysin, prolyl-m-L-sarcolysin, fluoro-phenylalanine and prolyl-m-sarcolysyl-p-fluoro-phenylalanin.
(§2) According to hitherto is available results this metabolite is most probably ADM linked to one Phe moiety. This was done with 1 ml of blood containing 20 μg/ml of the ADM derivative as well as 5×10^9 RBC compared to only 5×10^6 melanoma cells.

[2] = test system: red blood cells; test: Metabolite formation in the presence of red blood cells (HPLC, mass spectrometry); assay type: in vitro ADME; conditions: identified by HPLC and mass spectrometry
Protocol: as §1, §2

For “Prolyl-m-sarcolysyl-p-fluoro-phenylalanin [PSF]”, the “metabolites in the presence of cancer cells” value [1] was 4 and the “metabolites in presence of red blood cells” value [2] was “one major metabolite, namely m-L-sarcolysin”.
